The record followed here is patent US20110152112A1, “DIAGNOSIS AND TREATMENT OF REVERSE CHOLESTEROL TRANSPORT DEFICIENCY-RELATED DISEASES” (Artery Therapeutics, Inc., priority 2009, published 2011).

The subject of the test is J774 mouse macrophages (foam-cells). Description: Lipid efflux from J774 macrophage foam-cells to media (nascent HDL, LC-MS/MS). The class given is cell-based. On the procedure:
Study 1: Isolation of Nascent HDL from Incubations of Macrophage Foam-Cells with AT5261 and apoA-I.
A commercial transformed macrophage cell-line, J774 (mouse), was used to evaluate lipid efflux responses to peptide ATI-5261 and ApoA-I. Macrophage foam-cells were prepared and exposed to lipid-free AT5261 peptide and ApoA-I, respectively; Nascent HDL products resulting from stimulation of cholesterol efflux were isolated and concentrated from conditioned medium and analyzed for lipid content.
Near confluent T175-flasks (30 total) of J774 mouse macrophages were incubated (2 days) with 0.1 mg/ml acetylated LDL in […] culture medium containing 1% FBS, to produce foam-cells. On the day of the experiment, cell monolayers were rinsed (3 times) with 20 ml/flask of HBSS, incubated 1 h with 0.2% BSA in serum-free RPMI-1640 medium, then rinsed (3 times) with serum-free RPMI. Rinsed cells were then exposed (20 ml/flask) to either apoA-I (15 flasks) or ATI-5261 (15 flasks), at a final concentration of 10 microgram/ml serum free RPMI. Following 20 h, conditioned medium was recovered from flasks, pooled within groups, and filtered (0.2 mμ). The pooled medium (˜300 ml) was subsequently concentrated to 5 ml using an Amicon stir-cell (10 K membrane) and density adjusted to 1.21 g/ml with solid NaBr. Nascent HDL was isolated by ultracentrifugation (120K, 5 h 20 minutes, 10° C.) using a TL-120 centrifuge, samples dialyzed to saline (pH=7.4) and filter sterilized (0.2 nip, Nalgene capsules). Isolated material was used for detailed MS of PL subclasses, subjected to non-denaturing gradient gel electrophoresis and protein lipid ratios determined by 280 abs. and commercial kits.
Samples were kept at −80° C. until extraction. Samples were allowed to thaw on ice and a small aliquot of each sample was transferred into siliconized glass tubes followed by addition of ultrapure water. Samples were spiked with either a mixture of C17-based ceramide, sphingosine, sphingosine-1-phosphate and sphingomyelin (10 ng of each as internal sphingolipid standards) or ([…] of deuterated 16:0/16:0 PC as internal phosphatidylcholine standard). Samples were subjected to a Bligh and Dyer extraction (Bligh, E. G., Dryer, W. J. (1959) Can J Biochem physiol 37, 911-917). Lipid extracts were dried under stream of nitrogen at room temperature. The dried lipid extracts were then reconstituted in […] ethanol/formic acid (99.8/0.2) and kept at 4° C. until LC-MS/MS analysis. Extracts were injected onto a reverse phase C18 HPLC Column to separate and resolve the various lipids. Phosphatidylcholine and sphingolipids were eluted off the column and analyzed on a triple quadrupole mass spectrometer Sciex API 5500. The data acquisition was performed in a targeted MRM (MS/MS) mode using lipid specific precursor ion to product ion (or parent to daughter ion) mass transitions resulting in highly sensitive and specific quantitative data. The resulting data was processed using Applied Biosystems Analyst 1.4.2 software.

“ApoA-I: apolipoprotein A-I, natures strongest effluxer, lipid-free comparator”: the “Cholesterol: Phospholipid molar ratio mobilized to media” value (10 microgram/ml, 20 h, (S.D.)) was 2.89 (S.D. 0.68). Also, where the note is “LC-MS/MS, 10 microgram/ml, 20 h”, the “PC mobilized to media” value is given as 19. Further, the “LPC mobilized to media” value (LC-MS/MS, n=2) is 40. For the same substance, the LPC media concentrations entry (all LPC) is listed as “increased”. For the same substance, the “phospholipid (PL) media concentrations” value (all PL) was “increased”. For the same substance, under “values adjusted for the 2-fold difference”, the “type of LPC mobilized” value is “more of longer chain and more saturated LPCs”.
